# What was measured:
# [1] = target: T1, 5-hydroxytryptamine receptor 1A (Homo sapiens, UniProt P08908); assay: Binding affinity for 5-hydroxytryptamine 1A receptor
# T1 sequence (P08908 whole entry): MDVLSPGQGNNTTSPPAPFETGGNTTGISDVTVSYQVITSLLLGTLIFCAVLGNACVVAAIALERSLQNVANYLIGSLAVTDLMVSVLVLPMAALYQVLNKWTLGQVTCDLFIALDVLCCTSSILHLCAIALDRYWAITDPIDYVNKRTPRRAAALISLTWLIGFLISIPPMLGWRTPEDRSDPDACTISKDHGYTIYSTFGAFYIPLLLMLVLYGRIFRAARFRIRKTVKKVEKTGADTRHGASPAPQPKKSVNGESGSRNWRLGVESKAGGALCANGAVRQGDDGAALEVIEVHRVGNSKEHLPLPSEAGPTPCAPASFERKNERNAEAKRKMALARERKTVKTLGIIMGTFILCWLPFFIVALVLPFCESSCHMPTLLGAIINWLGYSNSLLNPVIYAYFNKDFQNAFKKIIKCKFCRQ
# [2] = target: 5-hydroxytryptamine receptor 1D (Sus scrofa, UniProt P79400); assay: Binding affinity for 5-hydroxytryptamine 1D receptor
# 5-hydroxytryptamine receptor 1D, sequence (P79400 whole entry): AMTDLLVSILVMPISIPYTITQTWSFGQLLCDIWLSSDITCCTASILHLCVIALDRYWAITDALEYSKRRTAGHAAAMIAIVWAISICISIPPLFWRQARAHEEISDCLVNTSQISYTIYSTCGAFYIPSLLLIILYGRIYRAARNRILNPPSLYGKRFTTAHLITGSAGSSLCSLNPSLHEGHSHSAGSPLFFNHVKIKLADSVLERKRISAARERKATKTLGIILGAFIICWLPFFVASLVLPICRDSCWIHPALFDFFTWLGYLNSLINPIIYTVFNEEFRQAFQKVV
# [3] = target: T2, Serotonin 3 (5-HT3) receptor (Rattus norvegicus) (UniProt P35563+Q9JJ16); assay: Agonistic activity of compound towards 5-hydroxytryptamine 3 receptor in Von Bezold-Jarisch Reflex in rats at 60 (ug/kg), evaluated as change in heart rate; type: functional
# [4] = target: T2, Serotonin 3 (5-HT3) receptor (Rattus norvegicus); assay: Antagonistic activity of compound towards 5-hydroxytryptamine 3 receptor in Von Bezold-Jarisch Reflex in rats at 60 (ug/kg), evaluated as percent inhibition of bradycardia; type: functional
# [5] = target: T2, Serotonin 3 (5-HT3) receptor (Rattus norvegicus); assay: Agonistic activity of compound towards 5-hydroxytryptamine 3 receptor in Von Bezold-Jarisch Reflex in rats at 100 (ug/kg), evaluated as change in heart rate; type: functional
# [6] = target: T3, Serotonin 3 (5-HT3) receptor (Rattus norvegicus, UniProt P35563+Q9JJ16); assay: Binding affinity towards 5-hydroxytryptamine 3 receptor; type: protein-complex assay
# T3 sequence (P35563 whole entry): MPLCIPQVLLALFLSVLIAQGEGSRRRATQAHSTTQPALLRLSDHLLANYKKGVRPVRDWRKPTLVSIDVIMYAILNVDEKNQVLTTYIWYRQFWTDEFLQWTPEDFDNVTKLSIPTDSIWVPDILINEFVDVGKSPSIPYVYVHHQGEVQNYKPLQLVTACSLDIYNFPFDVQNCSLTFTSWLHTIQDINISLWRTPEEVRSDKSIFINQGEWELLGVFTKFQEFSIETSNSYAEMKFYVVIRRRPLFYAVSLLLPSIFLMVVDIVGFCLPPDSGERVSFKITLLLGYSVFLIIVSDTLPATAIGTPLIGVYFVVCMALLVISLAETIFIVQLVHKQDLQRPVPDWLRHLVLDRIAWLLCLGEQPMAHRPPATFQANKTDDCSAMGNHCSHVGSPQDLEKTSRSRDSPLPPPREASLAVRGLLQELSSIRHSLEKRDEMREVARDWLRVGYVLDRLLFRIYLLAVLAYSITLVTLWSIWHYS
# T3 sequence (Q9JJ16 whole entry): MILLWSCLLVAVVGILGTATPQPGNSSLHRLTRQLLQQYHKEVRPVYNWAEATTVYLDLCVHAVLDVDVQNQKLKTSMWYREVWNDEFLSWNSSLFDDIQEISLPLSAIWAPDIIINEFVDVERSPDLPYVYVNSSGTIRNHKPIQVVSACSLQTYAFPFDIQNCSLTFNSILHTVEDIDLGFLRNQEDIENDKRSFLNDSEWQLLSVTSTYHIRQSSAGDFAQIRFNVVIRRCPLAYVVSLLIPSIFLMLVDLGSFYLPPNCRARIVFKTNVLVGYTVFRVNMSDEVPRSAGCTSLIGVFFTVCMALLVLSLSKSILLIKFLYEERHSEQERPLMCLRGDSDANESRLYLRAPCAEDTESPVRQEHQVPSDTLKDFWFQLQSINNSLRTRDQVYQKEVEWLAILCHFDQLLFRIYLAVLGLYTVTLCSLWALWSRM
# NG108-15 [7] = assay: (§1) In vitro effective concentration against [14C]guanidinium uptake into NG 108-15 cells; type: functional, cell-based; conditions: Murinae
# [8] = target: 5-hydroxytryptamine receptor 1B (Rattus norvegicus, UniProt P28564); assay: Binding affinity for 5-hydroxytryptamine 1B receptor
# 5-hydroxytryptamine receptor 1B, sequence (P28564 whole entry): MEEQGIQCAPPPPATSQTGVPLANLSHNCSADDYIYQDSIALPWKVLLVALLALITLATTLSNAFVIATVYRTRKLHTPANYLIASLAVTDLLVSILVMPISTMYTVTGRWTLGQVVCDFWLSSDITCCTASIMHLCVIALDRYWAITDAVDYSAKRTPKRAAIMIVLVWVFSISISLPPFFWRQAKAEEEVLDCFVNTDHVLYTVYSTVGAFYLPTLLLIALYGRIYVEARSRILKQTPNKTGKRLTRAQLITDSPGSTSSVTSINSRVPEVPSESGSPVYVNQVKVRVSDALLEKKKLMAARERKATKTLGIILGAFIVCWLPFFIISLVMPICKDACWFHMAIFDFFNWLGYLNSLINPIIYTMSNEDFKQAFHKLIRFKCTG
# [9] = target: 5-hydroxytryptamine receptor 2A (Bos taurus, UniProt Q75Z89); assay: Binding affinity towards 5-hydroxytryptamine 2A receptor
# 5-hydroxytryptamine receptor 2A, sequence (Q75Z89 whole entry): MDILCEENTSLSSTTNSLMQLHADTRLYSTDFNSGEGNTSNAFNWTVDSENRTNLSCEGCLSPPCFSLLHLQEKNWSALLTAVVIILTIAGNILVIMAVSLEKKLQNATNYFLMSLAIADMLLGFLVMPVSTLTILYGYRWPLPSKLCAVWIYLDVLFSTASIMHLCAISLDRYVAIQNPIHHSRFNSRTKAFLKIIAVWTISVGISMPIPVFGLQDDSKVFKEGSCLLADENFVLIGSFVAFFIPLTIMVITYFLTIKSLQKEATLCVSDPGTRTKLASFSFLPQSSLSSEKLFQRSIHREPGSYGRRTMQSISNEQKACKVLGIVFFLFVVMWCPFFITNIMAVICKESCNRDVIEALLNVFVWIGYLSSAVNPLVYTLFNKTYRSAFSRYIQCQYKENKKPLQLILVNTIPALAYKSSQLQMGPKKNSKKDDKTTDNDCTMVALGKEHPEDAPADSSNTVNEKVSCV
# [10] = target: T2, Serotonin 3 (5-HT3) receptor (Rattus norvegicus); assay: Antagonistic activity of compound towards 5-hydroxytryptamine 3 receptor in Von Bezold-Jarisch reflex in rats at 60(ug/kg), evaluated as percent inhibition of bradycardia; type: functional
# [11] = target: T4, 5-hydroxytryptamine receptor 2C (Homo sapiens, UniProt P28335); assay: Binding affinity towards 5-hydroxytryptamine 2C receptor
# T4 sequence (P28335 whole entry): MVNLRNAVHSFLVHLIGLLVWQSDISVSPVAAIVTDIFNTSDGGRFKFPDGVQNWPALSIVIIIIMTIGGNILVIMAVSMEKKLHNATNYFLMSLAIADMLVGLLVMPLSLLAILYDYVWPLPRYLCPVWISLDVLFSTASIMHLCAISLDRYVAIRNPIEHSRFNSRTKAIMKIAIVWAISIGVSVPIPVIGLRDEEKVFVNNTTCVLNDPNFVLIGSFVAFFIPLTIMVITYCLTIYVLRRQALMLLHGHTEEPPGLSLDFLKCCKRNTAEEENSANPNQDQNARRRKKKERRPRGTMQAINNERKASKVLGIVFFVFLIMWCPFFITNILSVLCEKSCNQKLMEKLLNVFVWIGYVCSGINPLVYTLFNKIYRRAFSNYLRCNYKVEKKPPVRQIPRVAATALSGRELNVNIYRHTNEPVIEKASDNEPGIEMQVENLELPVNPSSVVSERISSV
# [12] = target: T2, Serotonin 3 (5-HT3) receptor (Rattus norvegicus); assay: 5-Hydroxy tryptamine 3 receptor showing agonist activity (in vivo) in Von Bezold-Jarisch Reflex in rats at 120 (ug/kg), evaluated as change in heart rate; type: functional, organism-based
# [13] = target: T2, Serotonin 3 (5-HT3) receptor (Rattus norvegicus); assay: Antagonistic activity of compound towards 5-hydroxytryptamine 3 receptor in Von Bezold-Jarisch Reflex in rats at 100(ug/kg), evaluated as percent inhibition of bradycardia; type: functional
# [14] = target: T2, Serotonin 3 (5-HT3) receptor (Rattus norvegicus); assay: Agonistic activity of compound towards 5-hydroxytryptamine 3 receptorr in Von Bezold-Jarisch Reflex in rats at 100 (ug/kg), evaluated as change in heart rate; type: functional
# NG108-15 [15] = assay: as §1; type: functional; conditions: Murinae, read-out: ED50 (the source's name)
Structure (SMILES),IC50 [1] [µM],IC50 [2] [µM],Change [4] [%],IC50 [6] [µM],EC50 (NG108-15 [7]) [µM],IC50 [8] [µM],IC50 [9] [µM],Change [10] [%],IC50 [11] [µM],Change [13] [%],EC50 (NG108-15 [15]) [µM],Change [3] [%],Change [5] [%],Change [12] [%],Change [14] [%]
c1cc2c(N3CCNCC3)nc3ccsc3n2c1,0.0589,0.603,–,0.012,0.08,0.0138,2.63,68,0.0347,–,–,35,–,0,–
C=CCN1CCN(c2nc3ccsc3n3cccc23)CC1,0.12,0.38,–,0.00263,–,0.575,0.851,–,0.17,–,–,–,–,–,–
Clc1ccc(C(c2ccccc2)N2CCN(c3nc4ccsc4n4cccc34)CC2)cc1 (stereo not given),204,> 100,–,1.38,–,> 100,> 100,–,282,–,–,–,–,–,–
FC(F)(F)c1cccc(N2CCN(c3nc4sc(-c5ccccc5)cc4n4cccc34)CC2)c1,> 100,> 100,–,1740,–,> 100,> 100,–,23.4,–,–,–,–,–,–
CN1CCN(c2nc3cc(-c4ccccc4)sc3n3cccc23)CC1,4.9,87.1,–,19.1,–,14.8,7.41,–,11.7,–,–,–,–,–,–
O=C(CN1CCN(c2nc3ccsc3n3cccc23)CC1)N1CCCC1,0.407,251,–,1.48,–,> 100,14.5,–,8.32,–,–,–,–,–,–

# More lines, main results first:
IC50 [1] [µM],IC50 [2] [µM],Change [4] [%],IC50 [6] [µM],EC50 (NG108-15 [7]) [µM],IC50 [8] [µM],IC50 [9] [µM],Change [10] [%],IC50 [11] [µM],Change [13] [%],EC50 (NG108-15 [15]) [µM],Structure (SMILES),Change [3] [%],Change [5] [%],Change [12] [%],Change [14] [%]
14.5,> 100,34,0.00117,0.005,1580,38,–,–,–,–,Fc1ccc(CN2CCN(c3nc4sccc4n4cccc34)CC2)cc1,0,25,–,–
5.89,93.3,–,0.00457,0.03,91.2,19.5,–,3.72,67,–,c1ccc(CN2CCN(c3nc4sccc4n4cccc34)CC2)cc1,–,48,–,–
0.0676,0.468,–,0.000912,–,0.417,2.34,67,0.759,–,0.004,C=CCN1CCN(c2nc3sccc3n3cccc23)CC1,30,–,–,72
0.0724,200,–,269,–,18.6,5.13,–,1.07,–,–,FC(F)(F)c1ccccc1CCN1CCN(c2nc3ccsc3n3cccc23)CC1,–,–,–,–
0.263,36.3,–,0.00257,–,3.09,11,–,0.457,–,–,c1cc2c(N3CCN(Cc4ccc5c(c4)OCO5)CC3)nc3ccsc3n2c1,–,–,–,–

# Source: ChEMBL document CHEMBL1129317, “Novel selective and partial agonists of 5-HT3 receptors. Part 1. Synthesis and biological evaluation of piperazinopyrrolothienopyrazines” (J Med Chem, 1996)
